Where no end group is shown, it is not given here.
Target: T1, Nox1 oxidase (COS-Nox1 lysate: hNox1, p22phox, NOXO1, NOXA1) (Homo sapiens, UniProt Q9Y5S8)
T1 construct: expressed in transfected cells; host or cells: COS-22 cells (COS 7 with p22phox), transiently cotransfected; cell lysate used
T1 sequence (Q9Y5S8 1-564): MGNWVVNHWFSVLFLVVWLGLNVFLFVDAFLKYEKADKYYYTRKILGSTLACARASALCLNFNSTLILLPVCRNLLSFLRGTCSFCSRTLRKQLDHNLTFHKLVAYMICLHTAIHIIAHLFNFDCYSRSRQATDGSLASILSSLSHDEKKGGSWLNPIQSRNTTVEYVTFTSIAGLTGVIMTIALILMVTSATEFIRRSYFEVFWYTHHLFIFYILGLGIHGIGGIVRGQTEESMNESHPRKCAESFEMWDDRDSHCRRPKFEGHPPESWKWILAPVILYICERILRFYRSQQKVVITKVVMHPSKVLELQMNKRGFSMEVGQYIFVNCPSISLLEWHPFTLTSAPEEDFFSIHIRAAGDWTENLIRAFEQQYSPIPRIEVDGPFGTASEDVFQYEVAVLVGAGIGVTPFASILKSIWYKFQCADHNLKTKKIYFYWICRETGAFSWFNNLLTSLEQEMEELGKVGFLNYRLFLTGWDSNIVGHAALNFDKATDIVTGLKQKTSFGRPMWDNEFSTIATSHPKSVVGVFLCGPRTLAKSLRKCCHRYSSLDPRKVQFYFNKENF
T1 sequence (P13498 2-195 partner limits assumed): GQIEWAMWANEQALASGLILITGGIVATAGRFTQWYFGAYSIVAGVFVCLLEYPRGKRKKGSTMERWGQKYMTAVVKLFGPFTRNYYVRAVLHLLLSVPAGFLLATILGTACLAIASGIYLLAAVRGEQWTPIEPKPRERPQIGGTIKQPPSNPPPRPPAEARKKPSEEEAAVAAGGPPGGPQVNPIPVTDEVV
Assay: Cell-free SOD-inhibitable cytochrome c reduction assay, O2- production in COS-Nox1 lysates
Type: biochemical
Experimental: To test this hypothesis, the inhibitory activity of Nox2ds was assessed in cell-free assays using reconstituted systems expressing either Nox1, 2 or 4 oxidase. Nox 2 oxidase was recapitulated by stably transfecting COS 7 cells with Nox2, p22phox, p47phox, and p67phox (aka COS-Nox2). Nox1 oxidase was obtained by transfecting COS 7 cells with Nox1, p22phox, NOXO1 and NOXA1 (COS-Nox1), and Nox 4 oxidase was regenerated by transfection of COS 7 cells with Nox4 and p22phox. […] Our new data support selectivity of Nox2ds peptide in differentiating the contribution of Nox2 vs. Nox1 and Nox4 NADPH oxidase and its potential clinical use in ameliorating cardiopulmonary diseases.
Cell transfection was carried out using Lipofectamine LTX and Plus reagent (Invitrogen), according to the manufacturer's instructions. COS-22 cells were transiently cotransfected with pcDNA 3.1-hNox1, pCMVsport 6-hNOXA1, and pcDNA3.1-hNoxO1 (COS-Nox1/NOXO1/NOXA1 cells). Cells were used 24 h after transfection. […]
Superoxide (O2^−) production was measured in COS-Nox1 and COS-Nox2 lysates by determining the rate of O2^− dismutase (SOD) inhibitable cytochrome c reduction and by electron paramagnetic resonance (EPR). […]
O2^− production was initiated by the addition of NADPH and measured by the SOD-inhibitable cytochrome c reduction for 10 min.

With CSTRVRRQL-NH2 [Nox2ds, CSTRVRRQL] the “inhibition of Nox1-derived O2- production (in words)” value was “did not inhibit” and the “rate of Nox1-derived O2- production, cytochrome c reduction” value (10 μM peptide, 0 μM control 0.97±0.14) was 0.765±0.19 nmol O2^−/min/10^7 cell equivalents.

Reference: patent US9585933B2, “Therapeutic use of peptide inhibitors of NADPH oxidase; aerosolization as a delivery mechanism” (University of Pittsburgh—Of the Commonwealth System of …, priority 2011, dated 2017)
